# Measured values from patent US8765805B2, “Ligand activators of the RAR receptors and pharmaceutical/cosmetic applications thereof” (Galderma Research & Development, priority 2003, dated 2014).
# Experiments:
# Type in all cases: cell-based
# Conditions in all cases: HeLa stable transfectants; for Kd: Schild regression vs reference antagonist, read-out: Kdapp; for AC50: concentration that gives 50% of the activity
# RAR alpha = target: T1, RAR alpha (Homo sapiens, UniProt P10276); assay: Transactivation test, HeLa reporter cells (luciferase), RAR alpha
# T1 sequence (P10276 183-417 limits assumed): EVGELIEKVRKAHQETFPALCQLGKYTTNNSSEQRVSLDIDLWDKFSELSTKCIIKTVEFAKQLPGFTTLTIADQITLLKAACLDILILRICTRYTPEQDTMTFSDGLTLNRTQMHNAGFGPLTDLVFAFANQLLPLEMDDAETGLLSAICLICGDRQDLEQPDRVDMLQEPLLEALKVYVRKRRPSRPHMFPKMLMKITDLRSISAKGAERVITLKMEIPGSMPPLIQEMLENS
# Protocol: (§1) The activation of receptors with an agonist (activator) in HeLa cells leads to the expression of a reporter gene, luciferase, which, in the presence of a substrate, generates light. The activation of the receptors may thus be measured by quantifying the luminescence produced after incubating the cells in the presence of a reference antagonist. The activating products displace the antagonist from its site, thus allowing activation of the receptor. The activity is measured by quantifying the increase in light produced. This measurement makes it possible to determine the activating activity of the compounds according to the invention.
# (§2) Determination of the Kdapp:
# (§3) In this study, a constant is determined which is the affinity of the molecule for the receptor. Since this value can fluctuate depending on the basal activity and the expression of the receptor, it is referred to as the Kdapparent (KdApp).
# (§4) To determine this constant, the cells are brought into contact with a concentration of the test product and a concentration of the reference antagonist, 4-(5,5-dimethyl-8-p-tolyl-5,6-dihydronaphth-2-ylethynyl)benzoic acid. Measurements are also taken for the total agonist (4-[2-(5,5,8,8-tetramethyl-5,6,7,8-tetrahydronaphth-2-yl)propenyl]benzoic acid) and inverse agonist, 4-{(E)-3-[4-(4-tert-butylphenyl)-5,5,8,8-tetramethyl-5,6,7,8-tetrahydro-2-naphthyl]-3-oxopropenyl}benzoic acid, controls.
# (§5) These crossed curves make it possible to determine the AC50 values (concentration at which 50% activation is observed) for the reference ligand at various concentrations of test product. These AC50 values are used to calculate the Schild regression by plotting a straight line corresponding to the Schild equation (“quantitation in receptor pharmacology” Terry P. Kenakin, Receptors and Channels, 2001, 7, 371-385).
# (§6) In the case of an agonist, an AC50 value (concentration that gives 50% of the activity) is calculated by plotting the curve of the product at the concentration of the reference ligand that gives 80% activation.
# (§7) The HeLa cell lines used are stable transfectants containing the plasmids ERE-βGlob-Luc-SV-Neo (reporter gene) and RAR (α, β, γ) ER-DBD-puro. These cells are inoculated into 96-well plates at a rate of 10,000 cells per well in 100 μl of DMEM medium without phenol red, and supplemented with 10% defatted calf serum. The plates are then incubated at 37° C. and 7% CO2 for 4 hours.
# (§8) The various dilutions of the test products, of the reference ligand (4-(5,5-dimethyl-8-p-tolyl-5,6-dihydronaphth-2-yl)ethynyl)benzoic acid, of the 100% control (100 nM 4-[2-(5,5,8,8-tetramethyl-5,6,7,8-tetrahydro-2-naphthyl)propenyl]benzoic acid) and of the 0% control (500 nM 4-{(E)-3-[4-(4-tert-butylphenyl)-5,5,8,8-tetramethyl-5,6,7,8-tetrahydro-2-naphthyl]-3-oxopropenyl}benzoic acid) are added at a rate of 5 μl per well. The plates are then incubated for 18 hours at 37° C. and 7% CO2.
# (§9) The culture medium is removed by turning over and 100 μl of a 1:1 PBS/luciferine mixture is added to each well. After 5 minutes, the plates are read using the luminescence detector.
# RAR beta = target: T2, RAR beta (Homo sapiens, UniProt P10826); assay: Transactivation test, HeLa reporter cells (luciferase), RAR beta
# T2 sequence (P10826 183-417 limits assumed): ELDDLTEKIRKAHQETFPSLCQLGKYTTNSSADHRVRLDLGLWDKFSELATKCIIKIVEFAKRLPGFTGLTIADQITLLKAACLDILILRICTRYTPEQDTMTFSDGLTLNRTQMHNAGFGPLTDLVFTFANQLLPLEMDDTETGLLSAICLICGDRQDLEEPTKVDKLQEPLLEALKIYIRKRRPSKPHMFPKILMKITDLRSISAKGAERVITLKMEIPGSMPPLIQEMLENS
# Protocol: as §1, §2, §3, §4, §5, §6, §7, §8, §9
# RAR gamma = target: T3, RAR gamma (Homo sapiens, UniProt P13631); assay: Transactivation test, HeLa reporter cells (luciferase), RAR gamma
# T3 sequence (P13631 185-419 limits assumed): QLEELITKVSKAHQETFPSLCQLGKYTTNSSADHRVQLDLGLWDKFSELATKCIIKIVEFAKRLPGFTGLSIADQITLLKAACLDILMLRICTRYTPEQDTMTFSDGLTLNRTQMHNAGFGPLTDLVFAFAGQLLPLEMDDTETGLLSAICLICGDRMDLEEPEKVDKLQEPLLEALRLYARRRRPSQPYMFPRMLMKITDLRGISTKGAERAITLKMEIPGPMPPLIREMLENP
# Protocol: as §1, §2, §3, §4, §5, §6, §7, §8, §9
SMILES,Kd (RAR alpha),AC50 (RAR alpha),Kd (RAR beta),AC50 (RAR beta),Kd (RAR gamma),AC50 (RAR gamma)
"COCCOc1cc(C(O)C#Cc2ccc(C(=O)O)cc2)cc2c1C(C)(C)CCC2(C)C (stereo not drawn) [Ex 1, 4-{3-Hydroxy-3-[4-(2-methoxyethoxy)-5,5,8,8-tetramethyl-5,6,7,8-tetrahydronaphth-2-yl]prop-1-ynyl}benzoic acid]",60 nM,400 nM,60 nM,45 nM,2 nM,2 nM
"CCOCCOc1cc(C(O)C#Cc2ccc(C(=O)O)cc2)cc2c1C(C)(C)CCC2(C)C (stereo not drawn) [Ex 2, 4-{3-Hydroxy-3-[4-(2-ethoxyethoxy)-5,5,8,8-tetramethyl-5,6,7,8-tetrahydronaphth-2-yl]-prop-1-ynyl}benzoic acid]",1000 nM,900 nM,,500 nM,30 nM,50 nM
"CCOCCOc1cc(C(O)C#Cc2ccc(C(=O)O)c(O)c2)cc2c1C(C)(C)CCC2(C)C (stereo not drawn) [Ex 3, 4-{3-Hydroxy-3-[4-(2-ethoxyethoxy)-5,5,8,8-tetramethyl-5,6,7,8-tetrahydronaphth-2-yl]prop-1-ynyl}-2-hydroxybenzoic acid]",30 nM,150 nM,120 nM,100 nM,1 nM,1 nM
"CCOCCOc1cc([C@H](O)C#Cc2ccc(C(=O)O)cc2)cc2c1C(C)(C)CCC2(C)C [Ex 4, 4-{3-Hydroxy-3-[4-(2-ethoxyethoxy)-5,5,8,8-tetramethyl-5,6,7,8-tetrahydronaphth-2-yl]-prop-1-ynyl}benzoic (S)-acid]",120 nM,800 nM,,200 nM,1 nM,1.2 nM
"CCOCCOc1cc([C@@H](O)C#Cc2ccc(C(=O)O)cc2)cc2c1C(C)(C)CCC2(C)C [Ex 5, 4-{3-Hydroxy-3-[4-(2-ethoxyethoxy)-5,5,8,8-tetramethyl-5,6,7,8-tetrahydronaphth-2-yl]prop-1-ynyl}benzoic (R)-acid]",120 nM,800 nM,,200 nM,1 nM,1.8 nM
